The values that follow are results of earlier work, collected in article PMC5572761 (Journal of medicinal chemistry, 2017).

For the data set, the system named is α3β4 nAChR. The settings on record: read-out: IC50 [nM] α3β4; cited from earlier work.

In the case of α-conotoxin AuIB [Peptide 17], the IC50 is 750 nM.

For orientation: IC50 means the concentration that gives 50% inhibition.
